In ChEMBL document CHEMBL1201862, “PubChem BioAssay data set” (2004):
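Results reflect a 48-hour exposure of cells in 96-well plates to compound at five concentrations. GI50 is the concentration that inhibits growth by half.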 Activity calls are given as the source filed them. No stated cut-off is given here; in the data, active = GI50 up to about 1.1 µM and inactive = higher.

Legend:
Assay in all cases: DTP human tumour cell line panel, 48 h
EKVX = tested on: EKVX
OVCAR-8 = tested on: OVCAR-8
OVCAR-3 = tested on: OVCAR-3
M14 = tested on: M14
SNB-19 = tested on: SNB-19
SK-MEL-28 = tested on: SK-MEL-28
SK-MEL-5 = tested on: SK-MEL-5
OVCAR-4 = tested on: OVCAR-4
COLO 205 = tested on: COLO 205
NCI-H23 = tested on: NCI-H23
UO-31 = tested on: UO-31
IGROV-1 = tested on: IGROV-1
Hs-578T = tested on: Hs-578T
K562 = tested on: K562
SK-OV-3 = tested on: SK-OV-3
MDA-MB-435 = tested on: MDA-MB-435
TK-10 = tested on: TK-10
PC-3 = tested on: PC-3
BT-549 = tested on: BT-549
MDA-N = tested on: MDA-N

Compound	GI50 (EKVX)	GI50 (OVCAR-8)	GI50 (OVCAR-3)	GI50 (M14)	GI50 (SNB-19)	GI50 (SK-MEL-28)	GI50 (SK-MEL-5)	GI50 (OVCAR-4)	GI50 (COLO 205)	GI50 (NCI-H23)	GI50 (UO-31)	GI50 (IGROV-1)	GI50 (Hs-578T)	GI50 (K562)	GI50 (SK-OV-3)	GI50 (MDA-MB-435)	GI50 (TK-10)	GI50 (PC-3)	GI50 (BT-549)	GI50 (MDA-N)
CSc1nc(-c2ccc(C)cc2)c(C#N)c(=O)[nH]1	> 100 µM (inactive)	> 100 µM (inactive)	> 100 µM (inactive)	> 100 µM (inactive)	> 100 µM (inactive)	> 100 µM (inactive)	> 100 µM (inactive)	> 100 µM (inactive)	> 100 µM (inactive)	> 100 µM (inactive)	52 µM (inactive)	> 100 µM (inactive)	> 100 µM (inactive)	> 100 µM (inactive)	> 100 µM (inactive)	> 100 µM (inactive)	> 100 µM (inactive)	> 100 µM (inactive)	> 100 µM (inactive)	–
COc1ccc(C2=C(OC(=O)N(C)C)c3cccn3-c3cc(Cl)ccc3S2)cc1	> 10 µM (inactive)	> 10 µM (inactive)	–	> 10 µM (inactive)	–	> 10 µM (inactive)	> 10 µM (inactive)	6.79 µM (inactive)	> 10 µM (inactive)	> 10 µM (inactive)	–	> 10 µM (inactive)	–	8.91 µM (inactive)	> 10 µM (inactive)	> 10 µM (inactive)	> 10 µM (inactive)	5.64 µM (inactive)	–	> 10 µM (inactive)
COc1cc(/C=C2\N=C(c3ccccc3)N(c3ccc(S(=O)(=O)Nc4nccs4)cc3)C2=O)ccc1O	63.8 µM (inactive)	> 100 µM (inactive)	> 100 µM (inactive)	> 100 µM (inactive)	> 100 µM (inactive)	–	75.9 µM (inactive)	> 100 µM (inactive)	> 100 µM (inactive)	> 100 µM (inactive)	> 100 µM (inactive)	> 100 µM (inactive)	> 100 µM (inactive)	55.8 µM (inactive)	> 100 µM (inactive)	95.3 µM (inactive)	> 100 µM (inactive)	82.6 µM (inactive)	73.6 µM (inactive)	–
CCCCNC(=O)Nc1c(C(N)=O)c2n(c1C(=O)OCC)CCCCC2	> 100 µM (inactive)	> 100 µM (inactive)	–	> 100 µM (inactive)	> 100 µM (inactive)	> 100 µM (inactive)	> 100 µM (inactive)	> 100 µM (inactive)	> 100 µM (inactive)	> 100 µM (inactive)	> 100 µM (inactive)	> 100 µM (inactive)	64.9 µM (inactive)	> 100 µM (inactive)	> 100 µM (inactive)	> 100 µM (inactive)	> 100 µM (inactive)	> 100 µM (inactive)	> 100 µM (inactive)	–
NCCCC[C@H](N)C(=O)Nc1ccc(-c2nc3ccccc3s2)cc1Cl	5.6 µM (inactive)	7.71 µM (inactive)	0.247 µM (active)	3.55 µM (inactive)	12.6 µM (inactive)	7.89 µM (inactive)	12.5 µM (inactive)	–	4.91 µM (inactive)	–	6.35 µM (inactive)	< 0.01 µM (active)	16.3 µM (inactive)	2.74 µM (inactive)	16.3 µM (inactive)	4.9 µM (inactive)	0.0353 µM (active)	14.9 µM (inactive)	–	4.46 µM (inactive)
COc1cccc(-c2cc(=O)c3cc(N4CCCCC4)ccc3[nH]2)c1	–	0.026 µM (active)	< 0.01 µM (active)	< 0.0132 µM (active)	< 0.0117 µM (active)	> 100 µM (inactive)	< 0.01 µM (active)	1.51 µM (inactive)	< 0.0139 µM (active)	0.0204 µM (active)	7.29 µM (inactive)	0.0397 µM (active)	< 0.014 µM (active)	< 0.01 µM (active)	0.0316 µM (active)	< 0.01 µM (active)	79.3 µM (inactive)	< 0.0129 µM (active)	–	< 0.01 µM (active)
CCCCCCCCCCCCCCCC(=O)OCC1OC(OC)C2NP(=O)(N(CCCl)CCCl)OC1C2O (configuration not stated)	22 µM (inactive)	2.51 µM (inactive)	3.16 µM (inactive)	4.31 µM (inactive)	2.61 µM (inactive)	22.2 µM (inactive)	7.53 µM (inactive)	8.51 µM (inactive)	4.22 µM (inactive)	1.21 µM (inactive)	7.36 µM (inactive)	19 µM (inactive)	–	2.36 µM (inactive)	11.5 µM (inactive)	7.55 µM (inactive)	10.9 µM (inactive)	2.5 µM (inactive)	2.3 µM (inactive)	–
CSC(=S)N/N=C(\C)c1ccc(S(=O)(=O)N(C)c2ccccc2)cc1	21.8 µM (inactive)	31.6 µM (inactive)	16.7 µM (inactive)	25.5 µM (inactive)	26.4 µM (inactive)	34.8 µM (inactive)	–	25.6 µM (inactive)	68.4 µM (inactive)	19.1 µM (inactive)	15.7 µM (inactive)	3.5 µM (inactive)	15.5 µM (inactive)	13.9 µM (inactive)	59.2 µM (inactive)	22.9 µM (inactive)	> 100 µM (inactive)	19.3 µM (inactive)	–	30.3 µM (inactive)
O=c1c2c(F)c(F)c(F)c(F)c2sc2nccn12	24.7 µM (inactive)	19.2 µM (inactive)	14.4 µM (inactive)	17.6 µM (inactive)	19.8 µM (inactive)	23.4 µM (inactive)	18.5 µM (inactive)	19.5 µM (inactive)	17.6 µM (inactive)	15.5 µM (inactive)	–	17.4 µM (inactive)	31.3 µM (inactive)	6.55 µM (inactive)	18.9 µM (inactive)	14.9 µM (inactive)	18.4 µM (inactive)	18.4 µM (inactive)	–	14.4 µM (inactive)
NC1CNC(=O)c2c(Cl)sc(Cl)c21 (configuration not stated)	> 100 µM (inactive)	> 100 µM (inactive)	> 100 µM (inactive)	> 100 µM (inactive)	> 100 µM (inactive)	> 100 µM (inactive)	–	> 100 µM (inactive)	> 100 µM (inactive)	> 100 µM (inactive)	> 100 µM (inactive)	> 100 µM (inactive)	> 100 µM (inactive)	> 100 µM (inactive)	> 100 µM (inactive)	> 100 µM (inactive)	> 100 µM (inactive)	> 100 µM (inactive)	–	> 100 µM (inactive)
O=c1c2cccnc2ncn1CCN1CCCC1	> 100 µM (inactive)	> 100 µM (inactive)	> 100 µM (inactive)	> 100 µM (inactive)	> 100 µM (inactive)	> 100 µM (inactive)	> 100 µM (inactive)	> 100 µM (inactive)	> 100 µM (inactive)	> 100 µM (inactive)	> 100 µM (inactive)	> 100 µM (inactive)	–	> 100 µM (inactive)	> 100 µM (inactive)	–	> 100 µM (inactive)	–	–	–
COC(=O)C[C@H](COCc1ccccc1)NC(=O)C[C@H](COCc1ccccc1)NC(=O)OC(C)(C)C	18.9 µM (inactive)	24.7 µM (inactive)	27.7 µM (inactive)	32.8 µM (inactive)	21.2 µM (inactive)	> 100 µM (inactive)	45.8 µM (inactive)	18.5 µM (inactive)	> 100 µM (inactive)	35.3 µM (inactive)	32.5 µM (inactive)	33.7 µM (inactive)	26.4 µM (inactive)	40.2 µM (inactive)	23.2 µM (inactive)	34 µM (inactive)	–	26.9 µM (inactive)	20.7 µM (inactive)	–
O=C(/C(=N/Nc1ccccc1)c1ccc([N+](=O)[O-])cc1)c1ccc([N+](=O)[O-])cc1	> 100 µM (inactive)	> 100 µM (inactive)	> 100 µM (inactive)	> 100 µM (inactive)	> 100 µM (inactive)	> 100 µM (inactive)	> 100 µM (inactive)	> 100 µM (inactive)	> 100 µM (inactive)	> 100 µM (inactive)	> 100 µM (inactive)	> 100 µM (inactive)	–	64.4 µM (inactive)	> 100 µM (inactive)	–	> 100 µM (inactive)	–	–	–
Fc1c(F)c(F)c2c(c1F)CSc1nc3ccccc3n1-2	5.16 µM (inactive)	> 100 µM (inactive)	> 100 µM (inactive)	> 100 µM (inactive)	> 100 µM (inactive)	> 100 µM (inactive)	> 100 µM (inactive)	> 100 µM (inactive)	> 100 µM (inactive)	> 100 µM (inactive)	–	> 100 µM (inactive)	> 100 µM (inactive)	> 100 µM (inactive)	> 100 µM (inactive)	> 100 µM (inactive)	> 100 µM (inactive)	> 100 µM (inactive)	–	–
O=c1c2cc(Br)ccc2nc(CNc2ccccc2)n1-c1ccccc1	21.9 µM (inactive)	23.3 µM (inactive)	21.8 µM (inactive)	20.7 µM (inactive)	26.9 µM (inactive)	22.4 µM (inactive)	15.6 µM (inactive)	6.38 µM (inactive)	17.4 µM (inactive)	13.6 µM (inactive)	> 43.9 µM (inactive)	15.8 µM (inactive)	–	14.6 µM (inactive)	36.2 µM (inactive)	–	21.7 µM (inactive)	–	–	–
C/C(CC(=O)Nc1ccc(C)c(C)c1)=N\N(c1ccccc1)c1ccccc1	> 100 µM (inactive)	> 100 µM (inactive)	> 100 µM (inactive)	> 100 µM (inactive)	> 100 µM (inactive)	68.1 µM (inactive)	62.7 µM (inactive)	43.4 µM (inactive)	18.3 µM (inactive)	> 100 µM (inactive)	46 µM (inactive)	64.4 µM (inactive)	–	26.2 µM (inactive)	> 100 µM (inactive)	–	> 100 µM (inactive)	–	–	–
